Results taken from patent US20230250066A1, “HERBICIDAL CINNOLINE DERIVATIVES” (SYNGENTA CROP PROTECTION AG, priority 2020, published 2023).

What was measured:
Type in all cases: in vivo
[1] = system: Abutilon theophrasti (ABUTH); experiment: Pre-emergence herbicidal test; conditions: 1000 g/ha, evaluated after 13 days
[2] = system: Echinochloa crus-galli (ECHCG); experiment: Pre-emergence herbicidal test; conditions: 1000 g/ha, evaluated after 13 days
Setaria faberi (SETFA) [3] = experiment: Pre-emergence herbicidal test; conditions: 1000 g/ha, evaluated after 13 days
[4] = system: Ipomoea hederacea (IPOHE); experiment: Pre-emergence herbicidal test; conditions: 1000 g/ha, evaluated after 13 days
[5] = system: Abutilon theophrasti (ABUTH); experiment: Post-emergence herbicidal test; conditions: 1000 g/ha unless otherwise stated, evaluated after 13 days
How it was run: (§1)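 Pots sown in standard soil were kept in a glasshouse (24° C./16° C. day/night, 14 hours light, 65% humidity) and sprayed at 1000 g/ha unless otherwise stated in acetone/water (50:50) with 0.5% Tween 20. Percentage damage was scored after 13 days on a 0–5 scale.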

Zea mays (ZEAMX) [6] = experiment: Post-emergence herbicidal test; conditions: 1000 g/ha unless otherwise stated, evaluated after 13 days
How it was run: as §1

[7] = system: Echinochloa crus-galli (ECHCG); experiment: Post-emergence herbicidal test; conditions: 1000 g/ha unless otherwise stated, evaluated after 13 days
How it was run: as §1

[8] = system: Ipomoea hederacea (IPOHE); experiment: Post-emergence herbicidal test; conditions: 1000 g/ha unless otherwise stated, evaluated after 13 days
How it was run: as §1

Setaria faberi (SETFA) [9] = experiment: Post-emergence herbicidal test; conditions: 1000 g/ha unless otherwise stated, evaluated after 13 days
How it was run: as §1

[10] = system: Amaranthus retoflexus (AMARE); experiment: Post-emergence herbicidal test; conditions: 1000 g/ha unless otherwise stated, evaluated after 13 days
How it was run: as §1

Zea mays (ZEAMX) [11] = experiment: Pre-emergence herbicidal test; conditions: 1000 g/ha, evaluated after 13 days
[12] = system: Amaranthus retoflexus (AMARE); experiment: Pre-emergence herbicidal test; conditions: 1000 g/ha, evaluated after 13 days

Row | Structure (SMILES) | percentage damage caused to the plant, five-point scale, ABUTH [1] | percentage damage caused to the plant, five-point scale, ECHCG [2] | percentage damage caused to the plant, five-point scale, SETFA (Setaria faberi (SETFA) [3]) | percentage damage caused to the plant, five-point scale, IPOHE [4] | percentage damage caused to the plant, ABUTH (five-point scale) [5] | percentage damage caused to the plant, ZEAMX (five-point scale) (Zea mays (ZEAMX) [6]) | percentage damage caused to the plant, ECHCG (five-point scale) [7] | percentage damage caused to the plant, IPOHE (five-point scale) [8] | percentage damage caused to the plant, SETFA (five-point scale) (Setaria faberi (SETFA) [9]) | percentage damage caused to the plant, AMARE (five-point scale) [10] | percentage damage caused to the plant, five-point scale, ZEAMX (Zea mays (ZEAMX) [11]) | percentage damage caused to the plant, five-point scale, AMARE [12]
1 | CCOC(=O)c1nn(-c2ccc(OC(F)(F)F)cc2)c2cccc(S(=O)(=O)CC)c2c1=O [Compound P22, ethyl 5-ethylsulfonyl-4-oxo-1-[4-(trifluoromethoxy)phenyl]cinnoline-3-carboxylate] | 0 (0=0%) | 0 (0=0%) | 0 (0=0%) | 0 (0=0%) | 1 (1=10-20%) | 0 (0=0%) | 1 (1=10-20%) | 1 (1=10-20%) | 1 (1=10-20%) | 1 (1=10-20%) | 0 (0=0%) | 0 (0=0%)
2 | CS(=O)(=O)c1cccc2c1c(=O)c(C(=O)OCCC1CCCCC1)nn2-c1ccc(OC(F)(F)F)cc1 [Compound P87, 2-cyclohexylethyl 5-methylsulfonyl-4-oxo-1-[4-(trifluoromethoxy)phenyl]cinnoline-3-carboxylate] | 1 (1=10-20%) | 1 (1=10-20%) | 3 (3=41-60%) | 1 (1=10-20%) | 1 (1=10-20%) | 0 (0=0%) | 1 (1=10-20%) | 0 (0=0%) | 1 (1=10-20%) | 1 (1=10-20%) | 1 (1=10-20%) | 0 (0=0%)
3 | CS(=O)(=O)c1c(Br)ccc2c1c(=O)c(C(=O)O)nn2-c1ccc(OC(F)(F)F)cc1 [Compound P12, 6-bromo-5-methylsulfonyl-4-oxo-1-[4-(trifluoromethoxy)phenyl]cinnoline-3-carboxylic acid] | 1 (1=10-20%) | 1 (1=10-20%) | 4 (4=61-80%) | 0 (0=0%) | 1 (1=10-20%) | 1 (1=10-20%) | 3 (3=41-60%) | 0 (0=0%) | 3 (3=41-60%) | 1 (1=10-20%) | 0 (0=0%) | 0 (0=0%)
4 | CS(=O)(=O)c1cccc2c1c(=O)c(C(=O)OCC(F)F)nn2-c1ccc(OC(F)(F)F)cc1 [Compound P67, 2,2-difluoroethyl 5-methylsulfonyl-4-oxo-1-[4-(trifluoromethoxy)phenyl]cinnoline-3-carboxylate] | 0 (0=0%) | 4 (4=61-80%) | 5 (5=81-100%) | 0 (0=0%) | 1 (1=10-20%) | 1 (1=10-20%) | 3 (3=41-60%) | 1 (1=10-20%) | 4 (4=61-80%) | 1 (1=10-20%) | 2 (2=21-40%) | 0 (0=0%)
5 | CS(=O)(=O)c1cccc2c1c(=O)c(C(=O)OCCCl)nn2-c1ccc(OC(F)(F)F)cc1 [Compound P61, 2-chloroethyl 5-methylsulfonyl-4-oxo-1-[4-(trifluoromethoxy)phenyl]cinnoline-3-carboxylate] | 0 (0=0%) | 4 (4=61-80%) | 5 (5=81-100%) | 0 (0=0%) | 2 (2=21-40%) | 0 (0=0%) | 3 (3=41-60%) | 0 (0=0%) | 4 (4=61-80%) | 0 (0=0%) | 1 (1=10-20%) | 0 (0=0%)
6 | CS(=O)(=O)c1cccc2c1c(=O)c(C(=O)OCCCc1ccccc1)nn2-c1ccc(OC(F)(F)F)cc1 [Compound P84, 3-phenylpropyl 5-methylsulfonyl-4-oxo-1-[4-(trifluoromethoxy)phenyl]cinnoline-3-carboxylate] | 0 (0=0%) | 3 (3=41-60%) | 4 (4=61-80%) | 0 (0=0%) | 1 (1=10-20%) | 0 (0=0%) | 2 (2=21-40%) | 1 (1=10-20%) | 4 (4=61-80%) | 0 (0=0%) | 0 (0=0%) | 0 (0=0%)
7 | CC[S+]([O-])c1cccc2c1c(=O)c(C(=O)O)nn2-c1ccc(OC(F)(F)F)cc1 (stereo not drawn) [Compound P25, 5-ethylsulfinyl-4-oxo-1-[4-(trifluoromethoxy)phenyl]cinnoline-3-carboxylic acid] | 0 (0=0%) | 0 (0=0%) | 1 (1=10-20%) | 0 (0=0%) | 1 (1=10-20%) | 1 (1=10-20%) | 1 (1=10-20%) | 1 (1=10-20%) | 2 (2=21-40%) | 0 (0=0%) | 0 (0=0%) | 0 (0=0%)
8 | CCOC(=O)c1nn(-c2ccc(Cl)cc2F)c2cccc(S(C)(=O)=O)c2c1=O [Compound P42, ethyl 1-(4-chloro-2-fluoro-phenyl)-5-methylsulfonyl-4-oxo-cinnoline-3-carboxylate] | 1 (1=10-20%) | 3 (3=41-60%) | 4 (4=61-80%) | 1 (1=10-20%) | 1 (1=10-20%) | 1 (1=10-20%) | 4 (4=61-80%) | 1 (1=10-20%) | 4 (4=61-80%) | 1 (1=10-20%) | 0 (0=0%) | 0 (0=0%)
